The values that follow come from patent US10722514B2 (FLX Bio, Inc., priority 2017, dated 2020).

The experiment concerns the target T1, recombinant full-length USP7 (Homo sapiens, UniProt Q93009).
T1 construct: A 25 μl reaction volume containing recombinant full-length USP7 (62 pM)
Briefly: USP7-mediated ubiquitin-rhodamine cleavage assay. Format: biochemical. Conditions: recombinant full-length USP7 62 pM, ubiquitin-rhodamine 100 nM, 1 hour reaction at room temperature. The procedure, abridged:
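Rhodamine fluorescence read-out after acetic acid stop; IC50 by 4-parameter nonlinear regression. Enzyme at 62 pM, substrate ubiquitin-rhodamine 100 nM final, 1 h at room temperature in the dark, after 30 min compound preincubation. Buffer: HEPES pH 7.3, NaCl, TCEP, BSA; 1% DMSO.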

[1] abbreviates: 30-minute incubation with compound, read-out: Potency: USP7 IC50.
Setting [2] is: 30-minute pre-incubation, read-out: Potency (USP7 IC50).
Setting [3] is: 30-minute incubation, read-out: Potency (USP7 IC50).

Structures can show the parent of a compound that is named as a salt. Where two headings read alike, the source gives them in different places.

T1 sequence (Q93009 whole entry): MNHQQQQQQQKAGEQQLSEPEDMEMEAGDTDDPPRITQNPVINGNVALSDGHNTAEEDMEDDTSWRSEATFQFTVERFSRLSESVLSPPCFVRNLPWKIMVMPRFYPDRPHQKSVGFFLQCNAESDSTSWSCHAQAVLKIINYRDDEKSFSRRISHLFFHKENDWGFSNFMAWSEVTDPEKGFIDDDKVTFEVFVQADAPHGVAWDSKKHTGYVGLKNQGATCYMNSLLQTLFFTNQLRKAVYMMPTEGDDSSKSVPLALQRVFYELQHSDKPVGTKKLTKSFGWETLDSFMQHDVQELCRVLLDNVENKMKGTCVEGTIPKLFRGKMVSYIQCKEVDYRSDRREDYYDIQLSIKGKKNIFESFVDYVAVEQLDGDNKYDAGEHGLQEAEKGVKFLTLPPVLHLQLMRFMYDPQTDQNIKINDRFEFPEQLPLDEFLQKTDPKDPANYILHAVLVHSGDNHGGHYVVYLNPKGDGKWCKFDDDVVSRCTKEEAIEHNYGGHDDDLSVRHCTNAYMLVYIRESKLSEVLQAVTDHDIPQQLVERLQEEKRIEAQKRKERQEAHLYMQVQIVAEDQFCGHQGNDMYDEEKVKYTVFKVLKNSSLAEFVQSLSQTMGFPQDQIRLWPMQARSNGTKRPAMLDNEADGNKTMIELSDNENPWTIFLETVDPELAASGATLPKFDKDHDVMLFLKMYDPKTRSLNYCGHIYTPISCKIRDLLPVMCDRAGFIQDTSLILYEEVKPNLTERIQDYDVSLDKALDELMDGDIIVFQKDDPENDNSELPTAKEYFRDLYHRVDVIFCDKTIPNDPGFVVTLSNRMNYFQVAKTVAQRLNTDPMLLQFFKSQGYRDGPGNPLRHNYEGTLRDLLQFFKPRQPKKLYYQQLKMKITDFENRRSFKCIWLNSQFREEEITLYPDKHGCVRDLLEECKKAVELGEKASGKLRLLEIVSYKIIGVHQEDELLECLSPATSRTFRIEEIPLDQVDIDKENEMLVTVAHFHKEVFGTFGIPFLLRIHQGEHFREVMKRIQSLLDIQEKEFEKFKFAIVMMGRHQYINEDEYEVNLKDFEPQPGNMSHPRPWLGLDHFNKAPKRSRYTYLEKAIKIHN

As for `COc1ccc(C(=O)O)cc1-c1ccnc2cc(Cn3c(=O)ccn(CC(F)(F)F)c3=O)sc12` [Example 290, 3-[2-[[2,6-dioxo-3-(2,2,2-trifluoroethyl)pyrimidin-1-yl]methyl]thieno[3,2-b]pyridin-7-yl]-4-methoxy-benzoic acid], the concentration for half-maximal inhibition (IC50) (commonly the concentration at which inhibition is half-maximal) under setting [1] lay in the range of 1 to 10 µM. Regarding `Cc1cc(Cl)cc(-c2ccnc3cc(CN4C(=O)CCCC4=O)sc23)c1O[C@H]1CCCNC1` [Example 237, (S)-1-((7-(5-Chloro-3-methyl-2-(piperidin-3-yloxy)phenyl)thieno[3,2-b]pyridin-2-yl)methyl)piperidine-2,6-dione], under setting [1], the IC50 was less than 1 µM. As for `Cc1cc(Cl)cc(-c2ccnc3cc(Cn4c(=O)ccn(CC(F)(F)F)c4=O)sc23)c1O[C@H]1CNC[C@@H]1C` [Example 627, 3-[[7-[5-chloro-3-methyl-2-[(3R,4S)-4-methylpyrrolidin-3-yl]oxy-phenyl]thieno[3,2-b]pyridin-2-yl]methyl]-1-(2,2,2-trifluoroethyl)pyrimidine-2,4-dione], under setting [2], the IC50 is less than 1 µM. `Cc1cc(Cl)cc(-c2ncnc3cc(CN4C(=O)C(C)C(C)C4=O)sc23)c1O[C@@H]1CNC[C@@H]1F` (stereo partly drawn) [Example 379, 1-[[4-[5-chloro-2-[(3R,4S)-4-fluoropyrrolidin-3-yl]oxy-3-methyl-phenyl]thieno[3,2-d]pyrimidin-6-yl]methyl]-3,4-dimethyl-pyrrolidine-2,5-dione; 2,2,2-trifluoroacetic acid]: under setting [1], the concentration for half-maximal inhibition (IC50) is less than 1 µM.

Regarding `CCC(O)c1cc2ncnc(-c3cc(Cl)cc(C)c3OCC3(C)CNC3)c2s1` (centres unmarked) [Example 47, 1-(4-(5-chloro-3-methyl-2-((3-methylazetidin-3-yl)methoxy)phenyl)thieno[3,2-d]pyrimidin-6-yl)propan-1-ol], under setting [1], the 50% inhibitory concentration (IC50) was in the range of 1 to 10 µM.

As to `Cc1cc(Cl)cc(-c2ccnc3cc(CN4C(=O)CCC4=O)sc23)c1OC1CC[C@H](C)NC1` (stereo partly drawn) [Example 462, 1-[[7-[5-chloro-3-methyl-2-[[(6S)-6-methyl-3-piperidyl]oxy]phenyl]thieno[3,2-b]pyridin-2-yl]methyl]pyrrolidine-2,5-dione; 2,2,2-trifluoroacetic acid], under setting [2], the IC50 was less than 1 µM.

As to `Cc1cc(Cl)cc(-c2ncnc3cc(Cn4c(=O)ccn(CC(F)(F)F)c4=O)sc23)c1OC1CC2CNC1C2` (centres unmarked) [Example 526, 3-[[4-[2-(3-azabicyclo[2.2.1]heptan-5-yloxy)-5-chloro-3-methyl-phenyl]thieno[3,2-d]pyrimidin-6-yl]methyl]-1-(2,2,2-trifluoroethyl)pyrimidine-2,4-dione], the IC50 under setting [2] is less than 1 µM. In the case of `Cc1cc(Cl)cc(-c2ccnc3cc(CN4C(=O)CCC4=O)sc23)c1O[C@@H]1CN(C)C[C@@H]1F` [Example 124, 1-((7-(5-Chloro-2-(((3R,4S)-4-fluoro-1-methylpyrrolidin-3-yl)oxy)-3-methylphenyl)thieno[3,2-b]pyridin-2-yl)methyl)pyrrolidine-2,5-dione], the concentration for half-maximal inhibition (IC50) under setting [1] was less than 1 µM.

As to `Cc1cc(Cl)cc(-c2ccnc3cc(CN4C(=O)CCC4=O)sc23)c1O[C@H]1CC[C@H](N2CCC2)C1` [Example 157, 1-((7-(2-(((1S,3S)-3-(Azetidin-1-yl)cyclopentyl)oxy)-5-chloro-3-methylphenyl)thieno[3,2-b]pyridin-2-yl)methyl)pyrrolidine-2,5-dione], the IC50 under setting [1] is less than 1 µM. In the case of `Cc1cc(Cl)cc(-c2ncnc3cc(CN4C(=O)C5C(C4=O)C5(C)C)sc23)c1OCC1(C)CNC1` (centres unmarked) [Example 395, 3-[[4-[5-chloro-3-methyl-2-[(3-methylazetidin-3-yl)methoxy]phenyl]thieno[3,2-d]pyrimidin-6-yl]methyl]-6,6-dimethyl-3-azabicyclo[3.1.0]hexane-2,4-dione], the 50% inhibitory concentration (IC50) under setting [1] was less than 1 µM. Take `Cc1cc(Cl)cc(-c2ccnc3cc(CN4C(=O)NC(C)(C)C4=O)sc23)c1OC1CCNCC1` [Example 185, 3-((7-(5-Chloro-3-methyl-2-(piperidin-4-yloxy)phenyl)thieno[3,2-b]pyridin-2-yl)methyl)-5,5-dimethylimidazolidine-2,4-dione]: the concentration for half-maximal inhibition (IC50) under setting [1] is less than 1 µM. With `Cc1cc(Cl)cc(-c2ccnc3cc(Cn4c(=O)ccn(CC(F)(F)F)c4=O)sc23)c1O[C@H]1CC[C@H](C)NC1` [Example 598, 3-[[7-[5-chloro-3-methyl-2-[[(3S,6S)-6-methyl-3-piperidyl]oxy]phenyl]thieno[3,2-b]pyridin-2-yl]methyl]-1-(2,2,2-trifluoroethyl)pyrimidine-2,4-dione; 2,2,2-trifluoroacetic acid], under setting [2], the IC50 is less than 1 µM. Still for that read-out and setting: next, `Cc1cc(Cl)cc(-c2ccnc3cc(Cn4c(=O)ccn(C)c4=O)sc23)c1O[C@H]1CCN(C(C)C)C[C@@H]1F` [Example 473, 3-[[7-[5-chloro-2-[[(3S,4S)-3-fluoro-1-isopropyl-4-piperidyl]oxy]-3-methyl-phenyl]thieno[3,2-b]pyridin-2-yl]methyl]-1-methyl-pyrimidine-2,4-dione; 2,2,2-trifluoroacetic acid]: less than 1 µM. For the compound `Cc1cc(Cl)cc(-c2ncnc3cc(Cn4c(C(F)(F)F)cccc4=O)sc23)c1O[C@@H]1CNC[C@@H]1F` [Example 148, 1-((4-(5-Chloro-2-(((3R,4S)-4-fluoropyrrolidin-3-yl)oxy)-3-methylphenyl)thieno[3,2-d]pyrimidin-6-yl)methyl)-6-(trifluoromethyl)pyridin-2(1H)-one], the concentration for half-maximal inhibition (IC50) under setting [1] was in the range of 10 to 30 µM.

On to `Cc1cc(Cl)cc(-c2ccnc3cc(CO)sc23)c1O[C@@H]1CNC[C@@H]1N=[N+]=[N-]` [Example 191, (7-(2-(((3R,4S)-4-Azidopyrrolidin-3-yl)oxy)-5-chloro-3-methylphenyl)thieno[3,2-b]pyridin-2-yl)methanol], for which the IC50 under setting [1] lay in the range of 1 to 10 µM. Still for that read-out and setting: the value for `CCC(O)c1cc2nccc(-c3cc(Cl)cc(C)c3O[C@@H]3CNC[C@@H]3F)c2s1` (stereo partly drawn) [Example 82, 1-(7-(5-Chloro-2-(((3R,4S)-4-fluoropyrrolidin-3-yl)oxy)-3-methylphenyl)thieno[3,2-b]pyridin-2-yl)propan-1-ol] was 1 to 10 µM. Regarding `Cc1cc(Cl)cc(-c2ccnc3cc(Cn4c(=O)ccn(CC(F)(F)F)c4=O)sc23)c1OC1CC(N2C[C@@H]3C[C@H]2CO3)C1` (stereo partly drawn) [Example 675, 3-[[7-[5-chloro-3-methyl-2-[3-[(1S,4S)-2-oxa-5-azabicyclo[2.2.1]heptan-5-yl]cyclobutoxy]phenyl]thieno[3,2-b]pyridin-2-yl]methyl]-1-(2,2,2-trifluoroethyl)pyrimidine-2,4-dione], under setting [3], the IC50 is less than 1 µM. Take `Cc1cc(Cl)cc(-c2ccnc3cc(CN4C(=O)C5CC5C4=O)sc23)c1O[C@H]1CCCNC1` (stereo partly drawn) [Example 244, 3-((7-(5-Chloro-3-methyl-2-(((S)-piperidin-3-yl)oxy)phenyl)thieno[3,2-b]pyridin-2-yl)methyl)-3-azabicyclo[3.1.0]hexane-2,4-dione]: under setting [1], the concentration for half-maximal inhibition (IC50) was less than 1 µM. As to `Cc1cc(Cl)cc(-c2ccnc3cc(CN4C(=O)CCNC4=O)sc23)c1OC1CCNCC1` [Example 222, 3-((7-(5-Chloro-3-methyl-2-(piperidin-4-yloxy)phenyl)thieno[3,2-b]pyridin-2-yl)methyl)dihydropyrimidine-2,4(1H,3H)-dione], the IC50 under setting [1] was less than 1 µM.

Regarding `Cc1cc(Cl)cc(-c2ccnc3cc(Cn4c(=O)ccn(C)c4=O)sc23)c1OC1CC2CC1N(C(C)C)C2` (centres unmarked) [Example 474, 3-[[7-[5-chloro-2-[(3-isopropyl-3-azabicyclo[2.2.1]heptan-5-yl)oxy]-3-methyl-phenyl]thieno[3,2-b]pyridin-2-yl]methyl]-1-methyl-pyrimidine-2,4-dione], the IC50 under setting [2] is less than 1 µM. Turning to `Cc1cc(Cl)cc(-c2ccnc3cc(Cn4c(=O)c(F)cn(C)c4=O)sc23)c1O[C@H]1CCCNC1` [Example 422, 3-[[7-[5-chloro-3-methyl-2-[[(3S)-3-piperidyl]oxy]phenyl]thieno[3,2-b]pyridin-2-yl]methyl]-5-fluoro-1-methyl-pyrimidine-2,4-dione], the concentration for half-maximal inhibition (IC50) under setting [2] is less than 1 µM.

For `Cc1cc(Cl)cc(-c2ccnc3cc(Cn4c(=O)ccn(CC(F)(F)F)c4=O)sc23)c1OCCN1CCC1` [Example 701, 3-[[7-[2-[2-(azetidin-1-yl)ethoxy]-5-chloro-3-methyl-phenyl]thieno[3,2-b]pyridin-2-yl]methyl]-1-(2,2,2-trifluoroethyl)pyrimidine-2,4-dione; 2,2,2-trifluoroacetic acid], under setting [3], the IC50 is less than 1 µM. For the compound `Cc1cc(Cl)cc(-c2ccnc3cc(Cn4c(=O)ccn(C)c4=O)sc23)c1O[C@H]1CCN(C)C(C)(C)C1` [Example 490], the concentration for half-maximal inhibition (IC50) under setting [2] was less than 1 µM.

For `CCN1C[C@H]2C[C@@H]1[C@H](Oc1c(C)cc(Cl)cc1-c1ncnc3cc(CN4C(=O)C5C(C4=O)C5(C)C)sc13)C2` (stereo partly drawn) [Example 356, 3-[[4-[5-chloro-2-[[(1S,4R,5R)-3-ethyl-3-azabicyclo[2.2.1]heptan-5-yl]oxy]-3-methyl-phenyl]thieno[3,2-d]pyrimidin-6-yl]methyl]-6,6-dimethyl-3-azabicyclo[3.1.0]hexane-2,4-dione dihydrochloride], the half-inhibitory concentration (IC50) under setting [1] was less than 1 µM. `Cc1cc(C)c(O[C@H]2CCCNC2)c(-c2ccnc3cc(CO)sc23)c1` [Example 248, (S)-(7-(3,5-Dimethyl-2-(piperidin-3-yloxy)phenyl)thieno[3,2-b]pyridin-2-yl)methanol]: under setting [1], the IC50 is 10 to 30 µM. Regarding `Cc1cc(Cl)cc(-c2ccnc3cc(CNS(C)(=O)=O)sc23)c1O[C@@H]1CNC[C@@H]1F` [Example 107, N-((7-(5-Chloro-2-(((3R,4S)-4-fluoropyrrolidin-3-yl)oxy)-3-methylphenyl)thieno[3,2-b]pyridin-2-yl)methyl)methanesulfonamide], under setting [1], the half-inhibitory concentration (IC50) fell in the range of 1 to 10 µM.
